Laboratory results published in patent publication US20200277373A1, “ANTI-TREM2 ANTIBODIES AND METHODS OF USE THEREOF” (Denali Therapeutics Inc., priority 2017, published 2020).

Legend:
Format in all cases: cell-based
[1] = target: T1, TREM2 (Homo sapiens, UniProt Q9NZC2); experiment: Liposome stimulation pSyk AlphaLISA, HEK293 overexpressing TREM2 and DAP12; conditions: liposomes 30% lipid/70% PC (KLA 10%/90%), fold change over HBSS
T1 construct: expressed in transfected cells
Experimental: (§1) Lipids were purchased from Avanti Polar Lipids (Alabaster, Ala.) or Echelon Biosciences (Salt Lake City, Utah). Each screened lipid was resuspended in chloroform and added at 30 mole percent composition to 70 mole percent phosphatidylcholine (PC; 1,2-dioleoyl-sn-glycero-3-phosphocholine, Avanti Polar Lipids). Kdo2-Lipid A was added at a 10 mole percent composition with 90 mole percent PC. Lipid mixes were dried under nitrogen gas and resuspended in HBSS at a concentration of 4 mg/mL. Mixes were vortexed or briefly sonicated until resuspended, then bath sonicated for 1-5 minutes. Liposomes were used for 1-2 weeks. 3 independent batches of liposomes were used in experiments.
(§2) HEK293 cell lines overexpressing TREM2 and DAP12, mutant TREM2-R47H and DAP12, or DAP12 alone were plated in 96-well PDL-coated plates at a density of 40,000 cells per well and cultured for 36-48 hours until 90-100% confluent.
(§3) Cell culture medium was removed and cells were washed once with 200ul HBSS. Liposomes were diluted in HBSS in concentrations ranging from 0.03125 mg/mL to 2 mg/mL, then 50 μl was added to wells in 2-3 technical replicates per plate. Each plate contained HBSS negative control wells, 100% PC liposome control, 5 μg/mL agonist anti-TREM2 positive control (Abnova; Taiwan; # MAB2056), and 5 μg/mL mouse IgG3 isotype control (R&D Systems; Minneapolis, Minn.; # MAB007). Stimuli were incubated with cells for 5 minutes at 37° C., 5% CO2, liposomes were removed, and plates were frozen at −80° C.
(§4) Cells were lysed for 30 minutes to 1 hour on ice in 50 ul/well Cell Lysis Buffer (Cell Signaling Technology; Danvers, Mass.; #9803) with 1 mM PMSF. AlphaLISA SureFire Ultra p-Syk Tyr525/526 assay kit (PerkinElmer, ALSU-PSYK-A10OK) was used to measure pSyk levels in lysate as per manufacturer protocol. 10 μl lysate was added to 384-well OptiPlates (PerkinElmer; #6007290) and an EnVision Multilabel Plate Reader (PerkinElmer) was used to measure AlphaLISA fluorescence.
(§5) PSyk AlphaLISA fluorescence was converted to a log 2 scale. Fluorescence values from liposomes and controls were each subtracted from average fluorescence values from HBSS stimulated wells on the same plate (log 2(liposome)−log 2(HBSSave)=log 2(signal)). The result was converted back to a standard scale to measure fold change (2^log 2(signal)=fold change). Technical replicate fold changes values were averaged to obtain the fold change over background listed (pSyk FOB). Graphs represent values from independent experiments or individual human donors. Results from the screen on the HEK293 overexpressing cell lines are shown in Table 9 below and in FIG. 8A-8B. HEK293 results showing specificity for TREM2 over DAP12 expressed alone can be used to extrapolate which lipid species are likely acting as TREM2 ligands on human macrophages.

[2] = target: T2, R47H TREM2 mutant (Homo sapiens, UniProt Q9NZC2, R47H); experiment: Liposome stimulation pSyk AlphaLISA, HEK293 overexpressing TREM2-R47H and DAP12; conditions: liposomes 30% lipid/70% PC (KLA 10%/90%), fold change over HBSS
T2 construct: expressed in transfected cells
Experimental: as §1, §2, §3, §4, §5

[3] = tested on: primary human macrophages; experiment: Liposome stimulation pSyk AlphaLISA, primary human macrophages; conditions: liposomes 30% lipid/70% PC (KLA 10%/90%)
Experimental: as §1
10 mL human blood was obtained from Blood Centers of the Pacific. Monocytes were extracted using RosetteSep Human Monocyte Enrichment Cocktail ([…] Technologies Inc.; Vancouver, BC; #15068) as per manufacturer protocols. Density gradient was performed with Ficoll-Paque Premium (GE Healthcare Life Sciences; Pittsburgh, Pa.; #17-5442-02). Isolated monocytes were resuspended at ˜1-1.3 million cells/mL and cultured for 5-6 days in RPMI, 10% Hyclone Fetal Bovine Serum, and penicillin/streptomycin supplemented with 50 ng/mL human M-CSF (Gibco, # PHC9501) in T175 tissue culture treated flasks. M-CSF was replenished every 2-3 days. Cells were washed once with PBS, 15 mL fresh medium was added, and cells were harvested by scraping. Cells were cultured overnight at a density of 100,000 cells per well on tissue culture treated 96-well plates supplemented with 10-25 ng/mL M-CSF.
as §3, §4, §5

[4] = target: T3, DAP12 alone (Homo sapiens, UniProt O43914); experiment: Liposome stimulation pSyk AlphaLISA, HEK293 expressing DAP12 alone; conditions: liposomes 30% lipid/70% PC (KLA 10%/90%), fold change over HBSS
T3 construct: expressed in transfected cells
Experimental: as §1, §2, §3, §4, §5

T2 sequence (Q9NZC2 19-230 R47H): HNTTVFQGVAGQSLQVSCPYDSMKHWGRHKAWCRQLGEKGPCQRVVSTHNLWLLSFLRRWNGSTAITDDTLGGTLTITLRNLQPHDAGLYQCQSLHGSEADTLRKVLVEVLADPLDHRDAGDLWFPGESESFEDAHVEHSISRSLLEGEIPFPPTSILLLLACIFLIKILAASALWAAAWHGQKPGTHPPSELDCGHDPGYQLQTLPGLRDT
T2 sequence (O43914 22-113 partner): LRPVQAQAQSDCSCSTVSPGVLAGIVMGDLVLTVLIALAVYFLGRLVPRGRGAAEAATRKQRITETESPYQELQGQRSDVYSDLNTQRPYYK
T1 sequence (Q9NZC2 19-230): as the sequence (Q9NZC2 19-230 R47H) above, with H29R counted along it
T1 sequence (O43914 22-113 partner): as the sequence (O43914 22-113 partner) above
T3 sequence (O43914 22-113): as the sequence (O43914 22-113 partner) above

Row | Compound | Human TREM2 (pSyk FOB) [1] [FOB] | R47H TREM2 mutant (pSyk FOB) [2] [FOB] | pSyk FOB [3] [FOB] | DAP12 alone (pSyk FOB) [4] [FOB]
1 | CCCCCCCCCCCCCCC[C@@H](O)[C@@H](N)COP(=O)(O)O [Sphinganine-1-phosphate (SalP), Sphinganine-1-phosphate] | 3.31 | 5.32 | 1.08 | 1.34
2 | CCCCCCCCCCCCC/C=C/[C@@H](O)[C@@H](N)COP(=O)(O)O [Sphingosine-1-phosphate (SolP), Sphingosine-1-phosphate] | 2.42 | 3.94 | 2.10 | 1.64
3 | CCCCCCCCCCCCC/C=C/[C@@H](O)[C@@H](N)CO [Sphingosine] | 0.67 | 0.85 | 0.96 | 1.32
4 | Bis(monoacylglycero)phosphate [Bis(monoacylglycero)phosphate (BMP)] | 4.85 | 3.04 | 2.19 | 1.42
5 | Cardiolipin [Cardiolipin (CL)] | 3.79 | 3.31 | 2.50 | 1.26
6 | Ceramide | 2.20 | 2.21 | 1.44 | 1.30
7 | Ceramide-1-phosphate [Ceramide-1-phosphate (C1P)] | 3.89 | 4.00 | 2.28 | 1.16
8 | Cholesteryl ester [Cholesteryl ester (CE)] | 4.24 | 10.90 | 1.62 | 1.14
9 | Dihydrosphingomyelin [Dihydrosphingomyelin (DhSM)] | 1.59 | 1.93 | 0.96 | 1.40
10 | Ether phosphatidylcholine [Ether phosphatidylcholine (PCe)] | 2.94 | 3.97 | 1.29 | 1.33
11 | Galactosylceramide [Galactosylceramide (GalCer)] | 3.45 | 4.65 | 1.98 | 1.16
12 | Ganglioside GM1 | 4.94 | 4.93 | 1.52 | 0.92
13 | Ganglioside GM3 | 5.82 | 6.05 | 1.17 | 1.14
14 | Lactosylceramide [Lactosylceramide (LacCer)] | 1.89 | 2.06 | 1.29 | 1.27
15 | Lysophosphatidic acid [Lysophosphatidic acid (LPA)] | 3.69 | 3.62 | 1.82 | 1.17
16 | Lysophosphatidylethanolamine [LysophosphatidyLethanolamine (LPE)] | 4.16 | 3.58 | 2.03 | 1.28
17 | Lysophosphatidylglycerol [Lysophosphatidylglycerol (LPG)] | 4.83 | 3.44 | 1.64 | 1.28
18 | Lysophosphatidylinositol [Lysophosphatidylinositol (LPI)] | 1.12 | 0.32 | 1.61 | 1.03
19 | Lysophosphatidylserine [Lysophosphatidylserine (LPS)] | 3.77 | 3.88 | 1.78 | 1.39
20 | N-Acyl-Serine [N-Acyl-Serine (NSer)] | 2.59 | 3.76 | 1.66 | 1.39
21 | Oxidized phosphatidylcholine [Oxidized phosphatidylcholine (oxPC)] | 0.81 | 0.68 | 1.25 | 1.26
22 | Palmitic-acid-9-hydroxy-stearic-acid | 5.87 | 7.31 | 3.94 | 1.27
23 | Phosphatidic acid [Phosphatidic acid (PA)] | 2.17 | 2.72 | 2.17 | 1.48
24 | Phosphatidylethanol [Phosphatidylethanol (PEtOH)] | 3.00 | 4.83 | 1.61 | 1.57
25 | Phosphatidylethanolamine [Phosphatidylethanolamine (PE) or DSPE] | 1.49 | 2.49 | 1.53 | 1.51
26 | Phosphatidylglycerol [Phosphatidylglycerol (PG) or DSPG] | 2.25 | 3.77 | 1.85 | 1.40
27 | Phosphatidylinositol [Phosphatidylinositol (PI)] | 4.31 | 2.27 | 2.09 | 1.04
28 | Phosphatidylserine [Phosphatidylserine (PS)] | 2.42 | 2.65 | 2.09 | 1.27
29 | Sphingomyelin [Sphingomyelin (SM)] | 1.74 | 2.09 | 1.02 | 1.40
30 | Sulfatide | 5.02 | 6.34 | 1.75 | 1.21
